Source: article PMC11272821, “Mechanistic safety assessment via multi-omic characterisation of systemic pathway perturbations following in vivo MAT2A inhibition” (Archives of Toxicology, 2024)

Test system: rat liver proteome
Experiment: Liver label-free quantitative proteomics
Type: in vivo
Conditions: for differentially expressed liver proteins vs vehicle control: adjusted p < 0.05 and Log2 FC > 0.5 or < −0.5
Description: Liver tissue were homogenized in PreOmics iST buffer (PreOmics) using a bead ruptor. […] Peptides were purified using PreOmics iST cartridges and vacuum-centrifuged to dryness. Peptides were subsequently reconstituted in 2 vol% ACN and 0.1 vol% formic acid for single-run LC–MS analysis. Peptides were analyzed using a Thermo EASY-nLC1200 coupled online to an Exploris 480 Mass Spectrometer equipped with a Nanospray Flex Ion Source integrated with a column oven (PRSO-V1, Sonation) and a FAIMS unit. Peptides were separated using a nonlinear gradient and analyzed by acquiring spectra through Data Independent Acquisition (DIA). Data was analyzed using Spectronaut V15.7.2 (Biognosys AG) direct DIA analysis using an isoform Rat database (UniProt downloaded 22.02.2021) consisting of 9,746 protein entries utilizing the Pulsar search engine. Analysis settings were maintained to factory settings and identification was set to 1% false discovery rate (FDR) for precursor and protein level. Additional information is provided in Supplementary M&M.
Data analysis was performed using R Statistical Software (version 4.3.0). Proteomics, transcriptomics and metabolomics expression changes were visualised using heatmaps showing log2 fold change relative to control. In the heatmaps missing values were highlighted in grey.
Proteomics Analysis. Liver tissue was placed in vials containing 1.4 mm zirconia beads and taken up in 500 µL of PreOmics iST buffer (PreOmics). In a cold room set to 4 °C, tissues were homogenized utilizing a bead Ruptor 12 by shaking for 30 seconds for a total of 5 times using ‘high’ setting. Lysate was normalized using BCA assay (Thermo Fisher Scientific), and subsequently incubated at 95 °C for 10 min for reduction, and alkylation of proteins. A total of 50 μg from each sample was subjected to enzymatic cleavage for 3 h by adding equal amounts of endoproteinase Lys-C and trypsin (ThermoFisher Scientific, # A40009) in a 1:50 (wt/wt) enzyme:protein ratio. De-salting and purification were performed according to the PreOmics iST protocol on a styrene divinylbenzene reversed-phase sulfonate sorbent. Purified peptides were vacuum-centrifuged to dryness and reconstituted in double-distilled water with 2 vol% ACN and 0.1 vol% formic acid (FA) for single-run LC-MS analysis.
Peptides were loaded onto a ReproSil-Pur 120 C18AQ 1.9 µm in-house packed to a 5 µm tip 75u ID × 360u × 50 cm column using Thermo EASY-nLC 1200 coupled online to an Exploris 480 Mass Spectrometer equipped with a Nanospray Flex Ion Source integrated with a column oven (PRSO-V1, Sonation) maintained at 50 °C. Peptides were separated using a nonlinear gradient: Mobile phase A was 0.1 vol% FA and 3 vol% acetonitrile (ACN) in water, Mobile phase B was 90 vol% ACN and 0.1 vol % FA. The gradient was operated at 250 nL/min flowing 3 vol% B for 3 min, 3 to 5 vol% B over 3 min, 5 to 17 vol % B over 120 min, 17 to 24 vol % B over 26 min, 24 to 30 vol% B over 14 min, 30 to 85 vol% B over 3 min.

Cn1cc2cc(-c3cc4[nH]nc(C5CC5)c4n(-c4ccc(OC(F)F)cc4)c3=O)ccc2n1 [AZ’9567]
1.1: Ca5a Log2FC (liver protein, 3mg/kg) | Eif4ebp1 Log2FC (liver protein, 3mg/kg) | Hfe Log2FC (liver protein, 3mg/kg) | Hnrnpa1 Log2FC (liver protein, 3mg/kg) | Mtr Log2FC (liver protein, 3mg/kg) | Orm1 Log2FC (liver protein, 3mg/kg) | Fabp4 Log2FC (liver protein, 10mg/kg)
-1.5: Tat Log2FC (liver protein, 3mg/kg) | Carnmt1 Log2FC (liver protein, 10mg/kg)
1: Dmgdh Log2FC (liver protein, 3mg/kg)
12.4: Ccnd1 Log2FC (liver protein, 3mg/kg)
-0.7: Acbd4 Log2FC (liver protein, 3mg/kg) | Acsl1 Log2FC (liver protein, 3mg/kg) | Apeh Log2FC (liver protein, 3mg/kg) | Csad Log2FC (liver protein, 3mg/kg) | Fabp5 Log2FC (liver protein, 3mg/kg) | Fasn Log2FC (liver protein, 3mg/kg) | Gimd1 Log2FC (liver protein, 3mg/kg) | Rgn Log2FC (liver protein, 3mg/kg) | S1pr1 Log2FC (liver protein, 3mg/kg) | Sts Log2FC (liver protein, 3mg/kg) | Acsl1 Log2FC (liver protein, 10mg/kg) | Apeh Log2FC (liver protein, 10mg/kg) | Ctbs Log2FC (liver protein, 10mg/kg) | Gstm1 Log2FC (liver protein, 10mg/kg)
0.5: Cfdp1 Log2FC (liver protein, 3mg/kg) | Fdps Log2FC (liver protein, 3mg/kg) | Pspc1 Log2FC (liver protein, 3mg/kg) | Thg1l Log2FC (liver protein, 3mg/kg) | Cfdp1 Log2FC (liver protein, 10mg/kg) | Dbnl Log2FC (liver protein, 10mg/kg) | Dmgdh Log2FC (liver protein, 10mg/kg)
0.9: Chid1 Log2FC (liver protein, 3mg/kg) | Fdft1 Log2FC (liver protein, 3mg/kg) | Idi1 Log2FC (liver protein, 3mg/kg) | Lrrc8d Log2FC (liver protein, 3mg/kg) | Mat1a Log2FC (liver protein, 3mg/kg) | Nob1 Log2FC (liver protein, 3mg/kg) | Rbm3 Log2FC (liver protein, 3mg/kg) | Aqp8 Log2FC (liver protein, 10mg/kg) | Asns Log2FC (liver protein, 10mg/kg) | Brix1 Log2FC (liver protein, 10mg/kg) | Dohh Log2FC (liver protein, 10mg/kg) | Gnl3 Log2FC (liver protein, 10mg/kg)
1.5: Aldh1a7 Log2FC (liver protein, 3mg/kg) | Fgr Log2FC (liver protein, 3mg/kg) | Aldh1a1 Log2FC (liver protein, 10mg/kg)
-3.1: Cbs Log2FC (liver protein, 10mg/kg)
-1.3: Fads1 Log2FC (liver protein, 3mg/kg) | Tpmt Log2FC (liver protein, 3mg/kg) | Acbd4 Log2FC (liver protein, 10mg/kg) | Aox1 Log2FC (liver protein, 10mg/kg) | Csad Log2FC (liver protein, 10mg/kg)
-1.8: Abhd1 Log2FC (liver protein, 3mg/kg) | Mettl26 Log2FC (liver protein, 3mg/kg)
-0.5: Comt Log2FC (liver protein, 3mg/kg) | Mospd1 Log2FC (liver protein, 3mg/kg) | Aldh16a1 Log2FC (liver protein, 10mg/kg)
6.2: Mt1 Log2FC (liver protein, 3mg/kg)
0.8: Anpep Log2FC (liver protein, 3mg/kg) | Aqp8 Log2FC (liver protein, 3mg/kg) | Banf1 Log2FC (liver protein, 3mg/kg) | Dohh Log2FC (liver protein, 3mg/kg) | Gmpr Log2FC (liver protein, 3mg/kg) | Lyrm2 Log2FC (liver protein, 3mg/kg) | Mat2a Log2FC (liver protein, 3mg/kg) | Eif4ebp1 Log2FC (liver protein, 10mg/kg) | Gtpbp4 Log2FC (liver protein, 10mg/kg)
17.1: Ccnd1 Log2FC (liver protein, 10mg/kg)
1.8: Alpl Log2FC (liver protein, 3mg/kg)
-5.2: Cdo1 Log2FC (liver protein, 10mg/kg)
3.3: A2m Log2FC (liver protein, 10mg/kg)
-1.9: Mat2b Log2FC (liver protein, 3mg/kg)
1.4: Abcb1 Log2FC (liver protein, 3mg/kg) | Acsm2 Log2FC (liver protein, 3mg/kg) | Ces2c Log2FC (liver protein, 3mg/kg) | Cyp4a2 Log2FC (liver protein, 3mg/kg) | Aldh1a7 Log2FC (liver protein, 10mg/kg) | Gpcpd1 Log2FC (liver protein, 10mg/kg)
-1.6: Ugt2b1 Log2FC (liver protein, 3mg/kg) | Akap5 Log2FC (liver protein, 10mg/kg)
-3.9: Cdo1 Log2FC (liver protein, 3mg/kg)
1.2: Bhmt2 Log2FC (liver protein, 3mg/kg) | Gpcpd1 Log2FC (liver protein, 3mg/kg) | Tceanc2 Log2FC (liver protein, 3mg/kg) | Ces2c Log2FC (liver protein, 10mg/kg)
-1: Acaca Log2FC (liver protein, 3mg/kg) | Me1 Log2FC (liver protein, 3mg/kg) | Pklr.1 Log2FC (liver protein, 3mg/kg)
519: differentially expressed liver proteins vs vehicle control (highest dose (30 mg/kg BID))
-0.8: Acsl3 Log2FC (liver protein, 3mg/kg) | Baat Log2FC (liver protein, 3mg/kg) | Enpep Log2FC (liver protein, 3mg/kg) | Gstm1 Log2FC (liver protein, 3mg/kg) | Gstm2 Log2FC (liver protein, 3mg/kg) | Lipa Log2FC (liver protein, 3mg/kg) | Txnrd2 Log2FC (liver protein, 3mg/kg) | Wdr45 Log2FC (liver protein, 3mg/kg) | Enpep Log2FC (liver protein, 10mg/kg)
1.0: Coq4 Log2FC (liver protein, 3mg/kg) | Dcakd Log2FC (liver protein, 3mg/kg) | Gnl3 Log2FC (liver protein, 3mg/kg) | Hmgn2 Log2FC (liver protein, 3mg/kg) | Chid1 Log2FC (liver protein, 10mg/kg)
-1.0: Akap5 Log2FC (liver protein, 3mg/kg) | Gstm2 Log2FC (liver protein, 10mg/kg)
-1.1: Acly Log2FC (liver protein, 3mg/kg) | Als2 Log2FC (liver protein, 3mg/kg) | Baat Log2FC (liver protein, 10mg/kg) | Cyp2c23 Log2FC (liver protein, 10mg/kg)
0.7: Brix1 Log2FC (liver protein, 3mg/kg) | Cdh1 Log2FC (liver protein, 3mg/kg) | Gtpbp4 Log2FC (liver protein, 3mg/kg) | Kalrn Log2FC (liver protein, 3mg/kg) | Mybbp1a Log2FC (liver protein, 3mg/kg) | Paics Log2FC (liver protein, 3mg/kg) | Pcyt1a Log2FC (liver protein, 3mg/kg) | Pum3 Log2FC (liver protein, 3mg/kg) | Sh3glb1 Log2FC (liver protein, 3mg/kg) | Sirt2 Log2FC (liver protein, 3mg/kg) | Ube2f Log2FC (liver protein, 3mg/kg) | Ythdc1 Log2FC (liver protein, 3mg/kg) | mvd Log2FC (liver protein, 3mg/kg) | Banf1 Log2FC (liver protein, 10mg/kg) | Ca5a Log2FC (liver protein, 10mg/kg) | Cdh1 Log2FC (liver protein, 10mg/kg) | Cyp4a10 Log2FC (liver protein, 10mg/kg) | Fdft1 Log2FC (liver protein, 10mg/kg) | Gmpr Log2FC (liver protein, 10mg/kg)
1.3: Hmgcs1 Log2FC (liver protein, 3mg/kg) | Anpep Log2FC (liver protein, 10mg/kg) | Bhmt2 Log2FC (liver protein, 10mg/kg) | Dcakd Log2FC (liver protein, 10mg/kg) | Gnmt Log2FC (liver protein, 10mg/kg)
-1.4: Carnmt1 Log2FC (liver protein, 3mg/kg) | Igf1 Log2FC (liver protein, 3mg/kg)
-0.9: Ptprs Log2FC (liver protein, 3mg/kg) | Abhd1 Log2FC (liver protein, 10mg/kg) | Als2 Log2FC (liver protein, 10mg/kg) | Apoc1 Log2FC (liver protein, 10mg/kg) | Gimd1 Log2FC (liver protein, 10mg/kg)
-1.2: Apoc1 Log2FC (liver protein, 3mg/kg) | Acaca Log2FC (liver protein, 10mg/kg)
1.7: A2m Log2FC (liver protein, 3mg/kg) | Aldh1a1 Log2FC (liver protein, 3mg/kg) | Bhmt Log2FC (liver protein, 3mg/kg) | Cyp4a10 Log2FC (liver protein, 3mg/kg) | Tspo Log2FC (liver protein, 3mg/kg) | Bhmt Log2FC (liver protein, 10mg/kg)
-2.8: Scd1 Log2FC (liver protein, 3mg/kg)
around 357: differentially expressed liver proteins vs vehicle control (3 mg/kg BID)
0.6: Dbnl Log2FC (liver protein, 3mg/kg) | Dkc1 Log2FC (liver protein, 3mg/kg) | Hsd17b7 Log2FC (liver protein, 3mg/kg) | Minpp1 Log2FC (liver protein, 3mg/kg) | Ncl Log2FC (liver protein, 3mg/kg) | Prmt1 Log2FC (liver protein, 3mg/kg) | Rmdn1 Log2FC (liver protein, 3mg/kg) | Coq4 Log2FC (liver protein, 10mg/kg) | Dkc1 Log2FC (liver protein, 10mg/kg)
-2.9: Cbs Log2FC (liver protein, 3mg/kg)
-0.6: Aldh16a1 Log2FC (liver protein, 3mg/kg) | Aox1 Log2FC (liver protein, 3mg/kg) | Ctbs Log2FC (liver protein, 3mg/kg) | Cyp2c23 Log2FC (liver protein, 3mg/kg) | Hexa Log2FC (liver protein, 3mg/kg) | Mettl7b Log2FC (liver protein, 3mg/kg) | Acly Log2FC (liver protein, 10mg/kg) | Acsl3 Log2FC (liver protein, 10mg/kg) | Acsl5 Log2FC (liver protein, 10mg/kg) | Comt Log2FC (liver protein, 10mg/kg)
1.6: Asns Log2FC (liver protein, 3mg/kg) | Gnmt Log2FC (liver protein, 3mg/kg) | Abcb1 Log2FC (liver protein, 10mg/kg) | Alpl Log2FC (liver protein, 10mg/kg) | Fgr Log2FC (liver protein, 10mg/kg)
